Structures are written as SMILES.

The target in the first data set is T1, HCV RdRp NS5B d21BK (BK strain, 1b subtype) (Hepatitis C virus genotype 1b, UniProt P26663).
T1 construct: NS5B from the BK strain (1b subtype) is expressed in E. coli as a protein in which the 21 C-terminal amino acids are replaced; made in house; host or cells: E. coli
T1 sequence (P26663 2420-2997, looked up, natural form): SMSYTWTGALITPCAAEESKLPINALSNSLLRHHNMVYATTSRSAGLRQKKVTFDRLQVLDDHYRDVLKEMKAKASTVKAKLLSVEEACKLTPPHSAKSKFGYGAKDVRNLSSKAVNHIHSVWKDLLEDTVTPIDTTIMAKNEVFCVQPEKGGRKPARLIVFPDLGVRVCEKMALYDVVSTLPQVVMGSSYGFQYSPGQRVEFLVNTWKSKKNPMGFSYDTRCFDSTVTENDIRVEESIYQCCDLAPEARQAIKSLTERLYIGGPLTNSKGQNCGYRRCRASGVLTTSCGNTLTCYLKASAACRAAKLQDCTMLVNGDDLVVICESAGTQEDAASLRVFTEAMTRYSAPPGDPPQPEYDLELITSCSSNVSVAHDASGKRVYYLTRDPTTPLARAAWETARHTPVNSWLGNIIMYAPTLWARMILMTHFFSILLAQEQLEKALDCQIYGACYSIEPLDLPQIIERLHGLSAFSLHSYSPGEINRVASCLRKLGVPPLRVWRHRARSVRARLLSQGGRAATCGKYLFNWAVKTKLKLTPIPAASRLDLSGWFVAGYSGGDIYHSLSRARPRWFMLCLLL
The experiment in a line: HCV polymerase (NS5B) RNA-dependent RNA polymerase inhibition, 33P-GTP filter assay. The conditions noted are these: in vitro; NS5B BK strain (1b subtype), 24 nM enzyme, 2 h at room temperature; read-out: HCV Polymerase Median IC50. The data set is classed as biochemical. An excerpt:
The ability of the compounds of the present invention to inhibit hepatitis C polymerase was established by the following experimental procedure:
NS5B from the BK strain (1b subtype) is expressed in E. coli as a protein in which the 21 C-terminal amino acids are replaced with a short linker and a hexahistidine tag (GSHHHHHH). The purified protein is mixed with radioactive nucleotides and allowed to replicate a heteropolymeric RNA substrate, primed by an endogenous short hairpin, resulting in an approximately 760 nt product. The radioactive product is captured on a filter and quantitated after removal of the unincorporated nucleotides.
(1) Compounds 10 μl at 10 μg/ml in 15% DMSO
Add 20 μl enzyme mix into each well of the assay plate. Incubate compound and enzyme at room temperature for 15 minutes.
(3) Template Mix—Prepare Ahead.
Spin down a tube of RNA (5 μg/tube stored in 75% ethanol and 0.3 M sodium acetate) in a microcentrifuge for 20 min. at 4° C. One tube is enough for 1 to 1½ plates. Remove as much ethanol from the tube as possible by inverting the tube. Be gentle, pellet RNA may not adhere to the tube. Vacuum dry the RNA. Resuspend the RNA by adding 1 ml of DEPC water, close the cap of the tube tightly. To dissolve RNA, incubate RNA solution on ice for ˜60 min. and gently vortex. Spin briefly to ensure all RNA solution is down to the bottom of the tube before opening cap. Gently transfer RNA solution into a 5 ml or larger tube. Add another 3 ml of DEPC water (total 4 ml of volume).
Add the following volumes of reagents.
Add 20 μl template mix per reaction (i.e. 20 ng of POF per reaction or ˜3 nM)
(4) Incubate reaction at room temperature (22-25° C.) for 2 hours.
(5) Stop reaction by adding 50 μl of 170 mM EDTA.
Final concentration of EDTA is 85 mM.
(6) Prewet filters of Millipore Multiscreen filter plate by adding 200 μl of 0.5 M sodium phosphate buffer, pH 7.0 into each well. Let stand at room temperature for 2-3 min.
(7) Place the Multiscreen filter plate onto a Millipore Manifold and turn on vacuum to allow buffer to flow through. Turn off vacuum. Transfer 80 μl of the reaction product into each well of the filter plate. Let stand for 2-3 min. Turn on vacuum to filter reaction product.
(8) Turn off vacuum. Add 200 μl of 0.5 M sodium phosphate buffer, pH 7.0 into each well to wash filter. Turn on vacuum.
Repeat step (8) three more times.
(9) Remove polypropylene bottom. Spot dry filter at the bottom with paper towel. Air dry filter plate on a bench for 1 hr. Add 40 μl Super Mix scintillant. Seal top of the plate with a tape. Place plate into a Packard carrier or MicroBeta carrier.
(10) Count plate using a Packard Topcount or MicroBeta counter. Program 10 for ^33P in Top count or ^33P program in micro-beta.
Percent inhibition is calculated after background subtraction as a percent reduction of activity relative to the positive control (average value of the plate excluding the negative controls).
`O=C(O)[C@@H]1CCCCN1S(=O)(=O)c1cc(F)cc(Cl)c1O` [Example 41, (2S)-1-[(3-chloro-5-fluoro-2-hydroxyphenyl)sulfonyl]piperidine-2-carboxylic acid]: the IC50 is 1890 nM.

Turning to `O=C(O)[C@@H]1C[C@@H](O)CN1S(=O)(=O)c1cc(Br)cc(Br)c1O` [Example 6, (4R)-1-[(3,5-dibromo-2-hydroxyphenyl)sulfonyl]-4-hydroxy-L-proline], the IC50 amounted to 460 nM.

`CCC(=O)[C@@H]1CCCN1S(=O)(=O)c1cc(Cl)cc(Cl)c1O` [Example 29, 1-{(2S)-1-[(3,5-dichloro-2-hydroxyphenyl)sulfonyl]pyrrolidin-2-yl}propan-1-one]: the IC50 worked out at 7290 nM.

For `Cc1cc(N)c(S(=O)(=O)N2C[C@H](O)C[C@H]2C(=O)O)cc1Cl` [Example 25, (4R)1-[(2-amino-5-chloro-4-methylphenyl)sulfonyl]-4-hydroxy-L-proline], the IC50 came out at 7650 nM.

As for `Cc1cc(N)c(S(=O)(=O)N2C[C@@H](O)C[C@@H]2C(=O)O)cc1Cl` [Example 19, (4S)-1-[(2-amino-5-chloro-4-methylphenyl)sulfonyl]-4-hydroxy-D-proline], the IC50 was 4050 nM.

On to `Cc1cc(S(=O)(=O)N2C[C@@H](O)C[C@@H]2C(=O)O)c(N)cc1Cl` [Example 24, (4S)-1-[(2-amino-4-chloro-5-methylphenyl)sulfonyl]-4-hydroxy-D-proline], for which the IC50 was determined as 5100 nM.

`O=C(O)[C@@H]1C[C@@H](O)CN1S(=O)(=O)c1cc(Cl)cc(Cl)c1O` [Example 10, (4R)-1-[(3,5-dichloro-2-hydroxyphenyl)sulfonyl]-4-hydroxy-L-proline]: the half-maximal inhibitory concentration (IC50) is 670 nM.

For the compound `O=C(O)[C@@H]1C[C@@H](O)CN1S(=O)(=O)c1cc(F)cc(Cl)c1O` [Example 18, (4R)-1-[(3-chloro-5-fluoro-2-hydroxyphenyl)sulfonyl]-4-hydroxy-L-proline], the IC50 came to 3280 nM.

In the case of `O=C(O)[C@H]1CCCN1S(=O)(=O)c1cc(Br)cc(Br)c1O` [Example 27, 1-[(3,5-dibromo-2-hydroxyphenyl)sulfonyl]-D-proline], the IC50 is 7000 nM.

On to `Cc1cc(N)c(S(=O)(=O)N2CCCC[C@@H]2C(=O)O)cc1Cl` [Example 44, (2R)-1-[(2-amino-5-chloro-4-methylphenyl)sulfonyl]piperidine-2-carboxylic acid], for which the IC50 is 7900 nM.

As for `Cc1cc(S(=O)(=O)N2C[C@H](O)C[C@H]2C(=O)O)c(N)cc1Cl` [Example 28, (4R)-1-[(2-amino-4-chloro-5-methylphenyl)sulfonyl]-4-hydroxy-L-proline], the IC50 is 10000 nM.

`O=C(O)[C@H]1CCCCN1S(=O)(=O)c1cc(Cl)c(Cl)c(Cl)c1O` [Example 38, (2R)-1-[(3,4,5-trichloro-2-hydroxyphenyl)sulfonyl]piperidine-2-carboxylic acid]: the IC50 was found to be 380 nM.

Consider `O=C(O)[C@@H]1CSCN1S(=O)(=O)c1cc(Br)cc(Br)c1O` [Example 48, (4R)-3-[(3,5-dibromo-2-hydroxyphenyl)sulfonyl]-1,3-thiazolidine-4-carboxylic acid], for which the IC50 is 460 nM.

`Cc1cc(NC(=O)C2CC2)c(S(=O)(=O)N2CCC[C@H]2C(=O)O)cc1Cl` [Example 33, 1-({5-chloro-2-[(cyclopropylcarbonyl)amino]-4-methylphenyl}sulfonyl)-L-proline]: the IC50 came to 8680 nM.

For `O=C(O)[C@@H]1C[C@@H](O)CN1S(=O)(=O)c1cc(Cl)c(Cl)c(Cl)c1O` [Example 3, (4R)-4-hydroxy-1-[(3,4,5-trichloro-2-hydroxyphenyl)sulfonyl]-L-proline], the IC50 turned out to be 70 nM.

With `O=S(=O)(c1cc(Cl)cc(Cl)c1O)N1CCCC1` [Example 23, 2,4-dichloro-6-(pyrrolidin-1-ylsulfonyl)phenol], the IC50 was 4850 nM.

In the case of `O=S(=O)(c1cc(Cl)cc(Cl)c1O)N1CCSC1` [Example 52, 2,4-dichloro-6-(1,3-thiazolidin-3-ylsulfonyl)phenol], the IC50 was determined as 2350 nM.

As to `Cc1cc(N)c(S(=O)(=O)N2CSC[C@@H]2C(=O)O)cc1Cl` [Example 53, (4S)-3-[(2-amino-5-chloro-4-methylphenyl)sulfonyl]-1,3-thiazolidine-4-carboxylic acid], the IC50 stood at 3050 nM.

As for `O=C(O)[C@@H]1C[C@@H](O)CN1S(=O)(=O)c1cc(Cl)cc(Br)c1O` [Example 7, (4R)-1-[(3-bromo-5-chloro-2-hydroxyphenyl)sulfonyl]-4-hydroxy-L-proline], the IC50 was found to be 470 nM.

Turning to `O=C(O)[C@@H]1CCCN1S(=O)(=O)c1cc(F)cc(Cl)c1O` [Example 14, 1-[(3-chloro-5-fluoro-2-hydroxyphenyl)sulfonyl]-L-proline], the IC50 was 2050 nM.

In the case of `O=C(O)[C@@H]1CCCN1S(=O)(=O)c1cc(Cl)cc(Cl)c1O` [Example 11, 1-[(3,5-dichloro-2-hydroxyphenyl)sulfonyl]-L-proline], the IC50 was found to be 890 nM.

As to `O=S(=O)(c1cc(Cl)cc(Cl)c1O)N1CCC[C@H]1c1nn[nH]n1` [Example 1, 2,4-dichloro-6-{[(2S)-2-(2H-tetrazol-5-yl)pyrrolidin-1-yl]sulfonyl}phenol], the concentration for half-maximal inhibition (IC50) turned out to be 560 nM.

On to `O=C(O)[C@@H]1CCCN1S(=O)(=O)c1cc(Cl)c(Cl)cc1Cl` [Example 36, 1-[(2,4,5-trichlorophenyl)sulfonyl]-L-proline], for which the IC50 is 21900 nM.

Regarding `O=C(O)[C@@H]1CSCN1S(=O)(=O)c1cc(Cl)cc(Cl)c1O` [Example 47, (4R)-3-[(3,5-dichloro-2-hydroxyphenyl)sulfonyl]-1,3-thiazolidine-4-carboxylic acid], the IC50 was found to be 240 nM.

Test system in the next data set: not given
Experiment: not given
Conditions: not given
`O=C(O)[C@@H]1CCCN1S(=O)(=O)c1cc(Cl)cc(Cl)c1O` [Example 11, 1-[(3,5-dichloro-2-hydroxyphenyl)sulfonyl]-L-proline] came in with a melting point of 107.4 °C.

As a reminder, the IC50 is the concentration at which inhibition is half-maximal. As a reminder, the melting point is the temperature, or range, at which the solid turns liquid.

These data come from US20070225344A1, “Sulfonamide derivatives to treat infection with hepatitis C virus” (priority 2006, published 2007).
